Source: article PMC10388311, “Innovative Strategy toward Mutant CFTR Rescue in Cystic Fibrosis: Design and Synthesis of Thiadiazole Inhibitors of the E3 Ligase RNF5” (Journal of Medicinal Chemistry, 2023)

System: CFBE41o– cells
Assay: Apoptosis assay (Hoechst 33342 / propidium iodide, high-content imaging)
Format: cell-based, human
Procedure: We performed a preliminary evaluation of the effect of chronic treatment with selected analogues on the proliferation and apoptosis of CFBE41o^– cells (Figure 7). Indeed, RNF5 can modulate cell motility and proliferation by regulating paxillin ubiquitylation and thus its degradation.[53] For the proliferation assay, CFBE41o^– cells stably co-expressing F508del-CFTR and the HS-YFP were treated with test compounds (5 μM), VX-809 (1 μM), or vehicle alone (DMSO) for 48 h. Cell proliferation was then monitored by measuring the area covered by the cells based on the YFP signal. For the apoptosis assay, 24 h after plating, CFBE41o^– cells stably expressing F508del-CFTR were treated with test compounds (5, 20, and 100 μM), VX-809 (1 μM), MG132 (50 μM), or vehicle alone (DMSO) for 24 h. Cell nuclei were then counterstained with Hoechst 33342 and propidium iodide to visualize the total and apoptotic cell count, respectively, and imaged by using an Opera Phenix high-content screening system.
CFBE41o^– cells stably expressing F508del-CFTR and the HS-YFP were plated at a low density (5000 cell/well) on 96-well plates suitable for high-content imaging. […] Cell proliferation was monitored (by exploiting the YFP signal to determine the area covered by cells) for 48 h using the Opera Phenix (PerkinElmer) high-content screening system. […] Data are expressed as means ± SEM, n = 6. […]

SMILES: COc1cccc(Cn2c(C)ns/c2=N\C(=N\c2ccccc2)c2ccccc2)c1 [Compound 16, (E)-N-((Z)-4-(3-Methoxybenzyl)-3-methyl-1,2,4-thiadiazol-5(4H)-ylidene)-N′-phenylbenzimidamide]
- effect on cell proliferation and apoptosis (tolerability): good tolerability and no toxic side effects
